Measured values from patent US8247351B2, “Insecticidal compositions having improved effect” (Bayer Cropscience AG, priority 2005, dated 2012).

Columns and labels:
Myzus persicae [1] = assay: Myzus persicae test, Example C (spraying top side of leaf, ammonium salt plus penetrant); type: in vivo; settings: 120 g/ha active ingredient
Method: (§1) Solvent: 7 parts by weight dimethylformamide
(§2) Emulsifier: 1 part by weight alkylaryl polyglycol ether
(§3) An appropriate preparation of active ingredient is prepared by mixing 1 part by weight of active ingredient with the stated amounts of solvent and emulsifier and diluting the concentrate with water to the desired concentration. Where it is necessary to add ammonium salts, phosphonium salts or penetrant, the appropriate amount is added by pipette, after dilution, to each of the ready prepared product solutions. Single-leaf paprika plants (Capsicum annuum) heavily infested by the green peach aphid (Myzus persicae) are treated by spraying the top side of the leaf (spray volume 600 1/ha) with the preparation of active ingredient at the desired concentration. After the desired time the destruction in % is ascertained. 100% means that all of the animals have been killed; 0% means that no animals have been killed.

[2] = Penetration of active ingredient through enzymatically isolated apple leaf cuticles (Examples A-1, A-2, A-3); type: in vitro ADME, apple trees of the Golden Delicious variety; settings: 500 ppm in DMF/Emulgator W 7:1 (w/w)
Method: This test measured the penetration of active ingredients through enzymatically isolated cuticles of apple leaves.
The leaves used were cut in the fully developed state from apple trees of the Golden Delicious variety. The cuticles were isolated as follows: • first of all, leaf discs marked on the underside with dye and formed by punching were filled by means of vacuum infiltration with a pectinase solution (0.2% to 2% strength) buffered to a pH of between 3 and 4, • then sodium azide was added and • the leaf discs thus treated were left to stand until the original leaf structure broke down and the non-cellular cuticle underwent detachment.
Thereafter only those cuticles from the top leaf sides that were free from stomata and hairs were used. They were washed a number of times in alternation with water and with a buffer solution of pH 7. The clean cuticles obtained were, finally, applied to Teflon plaques, smoothed with a gentle jet of air, and dried.
In the next step the cuticular membranes obtained in this way were placed in stainless steel diffusion cells (i.e. transport chambers) for the purpose of membrane transport investigations. For these investigations the cuticles were placed centrally using tweezers on the edges of the diffusion cells, which were coated with silicone grease, and sealed with a ring, which was likewise greased. The arrangement had been chosen so that the morphological outer face of the cuticles was directed outwards, in other words to the air, while the original inner side was facing the interior of the diffusion cell.
The diffusion cells were filled with a 30% strength ethylene glycol/water solution. Penetration was determined by applying 10 μl of the spray liquor, whose composition is indicated below, to the outer face of each cuticle. The spray liquor is made up using local tap water of medium hardness.
After the spray liquors had been applied, the water was evaporated and the chambers were then inverted and placed in thermostated troughs in which the temperature and atmospheric humidity above the cuticle was adjustable by means of a gentle stream of air onto the cuticle with the spray coating (20° C., 60% rh). At regular intervals an autosampler took aliquots which were assayed for active ingredient by HPLC.
The figures indicated are average values from 8 to 10 measurements.
Example A-2 was carried out in the same way as in Example A-1.
Example A-3 was carried out in the same way as in Example A-1.

Myzus persicae [3] = assay: Myzus persicae test, Example B (spraying top side of leaf, ammonium salt boosting); type: in vivo; settings: 120 g/ha active ingredient
Method: as §1, §2
as §3, with “ready-prepared” for “ready prepared”

Cc1ccc(-c2ccc(Cl)cc2)c(C)c1C1=C(O)C2(CCOCC2)NC1=O [Ex. I-1-a-2]
Degree of destruction/% after 4 days (Myzus persicae [1]; RME (1 g/l)): 37%
Degree of destruction/% after 4 days (Myzus persicae [1]; RME (1 g/l) + AS (1 g/l)): 92%

Cc1cc(Cl)cc(C)c1C1=C(O)C2(CCOCC2)NC1=O [Example I-1-a-1]
Penetration after 24 h/% ([2]; Table A-1, EC + AS (ammonium sulphate, 1 g/l)): 2.5%
Penetration after 24 h/% ([2]; Table A-1, EC + RME (1 g/l) + AS (1 g/l)): 41%
Penetration after 24 h/% ([2]; Table A-1, EC + RME (rapeseed oil methyl ester, 1 g/l)): 13.5%
Penetration after 24 h/% ([2]; Table A-1, EC alone, 20° C., 60% rh): 0.6%
Penetration after 24 h/% ([2]; Table A-2, EC + RME (1 g/l) + AT (ammonium thiocyanate, 1 g/l)): 12%
Penetration after 24 h/% ([2]; Table A-2, EC + RME (1 g/l)): 3.5%
Penetration after 24 h/% ([2]; Table A-2, EC alone): <0.2%
Penetration after 24 h/% ([2]; Table A-3, EC + RME (1 g/l) + Ammonium dihydrogen-phosphate (1 g/l)): 42%
Penetration after 24 h/% ([2]; Table A-3, EC + RME (1 g/l) + Diammonium hydrogen-phosphate (1 g/l)): 26%
Penetration after 24 h/% ([2]; Table A-3, EC + RME (1 g/l)): 10%

CCOC(=O)OC1=C(c2cc(C)ccc2C)C(=O)N[C@]12CC[C@@H](OC)CC2 [Ex. I-1-c-1]
Degree of destruction/% after 3 days (Myzus persicae [3]; AS (ammonium sulphate, 1 g/l)): 67%
Degree of destruction/% after 3 days (Myzus persicae [3]; No AS): 37%
